For experiment [1], the system named is E. coli 1346. Nature of the experiment: Antibacterial activity of the products per se, serial dilution method in liquid medium (Test E). The class given is cell-based. As to conditions: product per se; for MIC E. coli 1346 (E): test E; for MIC E. coli 1346: Table 3, liquid medium. The text has this:
The antibacterial activity of the products per se is illustrated on the basis of Table 3 hereinafter, the minimum inhibitory concentration […] in vitro against E. coli 1346 being determined using the serial dilution method in liquid medium: […]

For experiment [2], the system named is Citrobacter freundii 1982. Nature of the experiment: MIC in vitro of a 1:4 combination of ceftriaxone with a compound of formula I (Test D). The format is cell-based. The following applies: for MIC C. freundii 1982 (D): test D; for MIC C. freundii 1982: Table 2. The method, then: The minimum inhibitory concentration in vitro ([…]) of a 1:4 combination of ceftriaxone with a compound of formula I against Citrobacter freundii 1982 was measured and compiled in Table 2 hereinafter.

Where [3] appears, read: Table 4, 1:4 combination of ceftriaxone with the compound.
[4] abbreviates: Table 5, particularly preferred products.
[5] abbreviates: 1:4 combination of ceftriaxone with the compound.
[6] abbreviates: Table 5, particularly preferred products, 1:4 combination with ceftriaxone.

Each structure is given as a SMILES string. Converted amounts (≈) assume the structure as drawn. Where a name gives a salt, the structure may show the parent alone.

On to `Cn1nc(O)c(=O)nc1SCC1=C(C(=O)O)N2C(=O)[C@H]3NC[C@@H](C1)[C@H]32` [Example 53, (1aS,3aR,6bR)-5-(2,5-Dihydro-6-hydroxy-2-methyl-5-oxo-1,2,4-triazin-3-ylsulphanylmethyl)-1-oxo-1a,2,3,3a,4,6 b-hexahydro-1H-2,6a-diazacyclobut[cd]indene-6-carboxylic acid trifluoroacetate], for which the “MIC E. coli 1346 (E)” value in experiment [1] (Table 4) was determined as 2 µg/mL. Besides, in experiment [2] (setting [3]), the “MIC C. freundii 1982 (D)” value stood at 4 µg/mL.

As for `C=CC1=C(C(=O)O)N2C(=O)[C@@H]3[C@H]2[C@H](C1)CN3C(C)=O` [Example 47, (1aS,3aR, 6bR)-2-Acetyl-1-oxo-5-vinyl-1a,2,3,3a,4,6b-hexahydro-1H-2,6a-diazacyclobut[cd]indene-6-carboxylic acid sodium salt], in experiment [1] (Table 4), the “MIC E. coli 1346 (E)” value was 8 µg/mL. Besides, the “MIC C. freundii 1982 (D)” value in experiment [2] (setting [3]) was 4 µg/mL.

As for `Nc1nnc(SC2=C(C(=O)O)N3C(=O)[C@@H]4[C@H]3[C@H](C2)CN4C(=O)Nc2ccc(O)cc2)s1` [3(l), (1aS,3aR,6bR)-5-(5-Amino-1,3,4-thiadiazol-2-ylsulphanyl)-2-(4-hydroxyphenylcarbamoyl)-1-oxo-1a,2,3,3a,4,6b-hexahydro-1H-2,6a-diazacyclobut[cd]indene-6-carboxylic acid sodium salt], the “MIC E. coli 1346” value in experiment [1] stood at 8 µg/mL. Besides, the “MIC E. coli 1346 (E)” value in experiment [1] (setting [4]) came out at 8 µg/mL. Besides, the “MIC C. freundii 1982” value in experiment [2] (setting [5]) turned out to be 0.5 µg/mL. In experiment [2] (setting [6]), the “MIC C. freundii 1982 (D)” value worked out at 0.5 µg/mL.

Take `NC(=O)OCC1=C(C(=O)O)N2C(=O)[C@@H]3[C@H]2[C@H](C1)CN3C(=O)Nc1ccc(C(N)=O)cc1` [27(b), (1aS,3aR,6bR)-5-Carbamoyloxymethyl-2-(4-carbamoylphenylcarbamoyl)-1-oxo-1a,2,3,3a,4,6b-hexahydro-1H-2,6a-diazacyclobut[cd]indene-6-carboxylic acid sodium salt]: in experiment [1] (setting [4]), the “MIC E. coli 1346 (E)” value is over 32 µg/mL. Moreover, the “MIC C. freundii 1982 (D)” value in experiment [2] (setting [6]) is at most 0.06 µg/mL.

`Cn1nnnc1SC1=C(C(=O)O)N2C(=O)[C@@H]3[C@H]2[C@H](C1)CN3C(=O)NCc1ccc(S(N)(=O)=O)cc1` [3(g), (1aS,3aR,6bR)-5-(1-Methyl-1H-tetrazol-5-ylsulphanyl)-1-oxo-2-(4-sulphamoyl-benzylcarbamoyl)-1a,2,3,3a,4,6b-hexahydro-1H-2,6a-diazacyclobut[cd]indene-6-carboxylic acid sodium salt]: in experiment [1], the “MIC E. coli 1346” value amounted to 16 µg/mL. The “MIC C. freundii 1982” value in experiment [2] (setting [5]) turned out to be 0.5 µg/mL.

Turning to `NC(=O)OCC1=C(C(=O)O)N2C(=O)[C@@H]3[C@H]2[C@H](C1)CN3C(=O)NCc1ccc(S(N)(=O)=O)cc1` [27(e), (1aS,3aR,6bR)-5-Carbamoyloxymethyl-2-(4-sulphamoylbenzylcarbamoyl)-1-oxo-1a,2,3,3a,4,6b-hexahydro-1H-2,6a-diazacyclobut[cd]indene-6-carboxylic acid sodium salt], in experiment [1] (Table 4), the “MIC E. coli 1346 (E)” value was 32 µg/mL. Moreover, the “MIC C. freundii 1982 (D)” value in experiment [2] (setting [3]) is 0.5 µg/mL.

For the compound `NC(=O)OCC1=C(C(=O)O)N2C(=O)[C@@H]3[C@H]2[C@H](C1)CN3C(=O)C(F)(F)F` [58(d), (1aS,3aR,6bR)-5-Carbamoyloxymethyl-1-oxo-2-trifluoroacetyl-1a,2,3,3a,4,6b-hexahydro-1H-2,6a-diazacyclobut[cd]indene-6-carboxylic acid sodium salt], in experiment [1] (setting [4]), the “MIC E. coli 1346 (E)” value came to 1 µg/mL. Moreover, in experiment [2] (setting [6]), the “MIC C. freundii 1982 (D)” value was 0.5 µg/mL.

Take `Cc1nnc(SC2=C(C(=O)O)N3C(=O)[C@@H]4[C@H]3[C@H](C2)CN4C(=O)C(F)(F)F)s1` [Example 3(ad), (1aS,3aR,6bR)-5-(5-Methyl-1,3,4-thiadiazol-2-ylsulphanyl)-1-oxo-2-trifluoracetyl-1a,2,3,3a,4,6b-hexahydro-1H-2,6a-diazacyclobut[cd]indene-6-carboxylic acid sodium salt]: the “MIC E. coli 1346 (E)” value in experiment [1] (Table 4) came to 16 µg/mL. Also, the “MIC C. freundii 1982 (D)” value in experiment [2] (setting [3]) stood at 8 µg/mL.

On to `O=C(O)C1=C(CSc2nc[nH]n2)C[C@@H]2CN(C(=O)C(F)(F)F)[C@@H]3C(=O)N1[C@H]23` [76(b), (1aS,3aR,6bR)-1-Oxo-5-(1H-1,2,4-triazol-3-ylsulphanylmethyl)-2-trifluoroacetyl-1a,2,3,3a,4,6b-hexahydro-1H-2,6a-diazacyclobut[cd]indene-6-carboxylic acid sodium salt], for which, in experiment [1] (Table 4), the “MIC E. coli 1346 (E)” value is at most 0.25 µg/mL. Also, in experiment [2] (setting [3]), the “MIC C. freundii 1982 (D)” value worked out at 0.5 µg/mL.

Take `NC(=O)CNC(=O)OCC1=C(C(=O)O)N2C(=O)[C@@H]3[C@H]2[C@H](C1)CN3C(=O)C(F)(F)F` [96(b), (1aS,3aR,6bR) 5-Carbamoylmethylcarbamoyloxymethyl-1-oxo-2-trifluoroacetyl-1a,2,3,3a,4,6b-hexahydro-1H-2,6a-diazacyclobut[cd]indene-6-carboxylic acid sodium salt]: in experiment [1] (Table 4), the “MIC E. coli 1346 (E)” value amounted to 2 µg/mL. In addition, in experiment [2] (setting [3]), the “MIC C. freundii 1982 (D)” value is 0.5 µg/mL.

Take `O=C(NCC(F)(F)F)OCC1=C(C(=O)O)N2C(=O)[C@@H]3[C@H]2[C@H](C1)CN3C(=O)C(F)(F)F` [92(b), (1aS,3aR,6bR)-1-Oxo-2-trifluoroacetyl-5-(2,2,2-trifluoroethylcarbamoyloxymethy)-1a,2,3,3a,4,6b-hexahydro-1H-2,6a-diazacyclobut[cd]indene-6-carboxylicacid sodium salt]: the “MIC E. coli 1346 (E)” value in experiment [1] (Table 4) was determined as 4 µg/mL. The “MIC C. freundii 1982 (D)” value in experiment [2] (setting [3]) turned out to be 2 µg/mL.

Regarding `Cn1nnnc1CSCC1=C(C(=O)O)N2C(=O)[C@H]3NC[C@@H](S1)[C@H]32` [Example 43, (1aS,3aR,6bS)-5-(1-Methyl-1H-tetrazol-5-ylmethylsulphanylmethyl)-1-oxo-4-thia-1,1a,2,3,3a,6 b-hexahydro-2,6a-diazacyclobut-[cd]indene-6-carboxylic acid sodium salt], the “MIC E. coli 1346 (E)” value in experiment [1] (Table 4) was over 32 µg/mL. The “MIC C. freundii 1982 (D)” value in experiment [2] (setting [3]) is 4 µg/mL.

As for `NC(=O)Cn1nnnc1SCC1=C(C(=O)O)N2C(=O)[C@@H]3[C@H]2[C@H](C1)CN3C(=O)C(F)(F)F` [70(b), (1aS,3aR,6bR)-5-(1-Carbamoylmethyl-1H-tetrazol-5-ylsulphanylmethyl)-2-trifluoroacetyl-1-oxo-1a,2,3,3a,4,6b-hexahydro-1H-2,6a-diazacyclobut[cd]indene-6-carboxylic acid sodium salt], the “MIC E. coli 1346 (E)” value in experiment [1] (Table 4) came to 1 µg/mL. The “MIC C. freundii 1982 (D)” value in experiment [2] (setting [3]) is 0.5 µg/mL.

For `CC(=O)N1C[C@H]2OC(CSc3nnnn3C)=C(C(=O)O)N3C(=O)[C@@H]1[C@@H]23` [Example 35, (1aS,3aR,6bS)-2-Acetyl-5-(1-methyl-1H-tetrazol-5-yl-sulphanylmethyl)-1-oxo-1,1a,2,3,3a,6b-hexahydro-4-oxa-2,6 a-diazacyclobut[cd]indene-6-carboxylic acid sodium salt], in experiment [1] (setting [4]), the “MIC E. coli 1346 (E)” value came to 0.5 µg/mL. Besides, in experiment [2] (setting [6]), the “MIC C. freundii 1982 (D)” value was 1 µg/mL.

With `CCOC(=O)N1C[C@H]2CC(CSc3nnnn3C)=C(C(=O)O)N3C(=O)[C@@H]1[C@@H]23` [Example 62, (1aS,3aR,6bR)-5-(1-Methyl-1H-tetrazol-5-ylsulphanylmethyl)-1-oxo-1a,2,3,3a,4,6b-hexahydro-1H-2,6a-diazacyclobut[cd]indene-2,6-dicarboxylic acid 2-ethyl ester], the “MIC E. coli 1346 (E)” value in experiment [1] (Table 4) was found to be 16 µg/mL (≈ 40.6 µM). The “MIC C. freundii 1982 (D)” value in experiment [2] (setting [3]) was determined as 0.5 µg/mL.

Values taken from patent publication US5464617A, “β-lactam compounds” (Hoffmann-La Roche Inc., priority 1994, dated 1995).
